Experimental data published in US20100267561A1, “HERBICIDAL PYRIDAZINONE DERIVATIVES” (priority 2007, published 2010).

Tests used:
Test in all cases: Test B pre-/postemergence plant response
Format in all cases: in vivo
[1] = test system: johnsongrass (Sorghum halepense)
Summary of the method: (§1)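 Seeds were sown and sprayed preemergence, while plants at 2 to 18 cm (1- to 4-leaf stage) got postemergence sprays. Compounds were formulated in a non-phytotoxic solvent mixture with surfactant. After 13 to 15 days in a greenhouse, injury was rated visually against untreated controls, 0 (no effect) to 100 (complete control).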

[2] = test system: green foxtail (Setaria viridis)
Summary of the method: as §1

[3] = test system: goosegrass (Eleusine indica)
Summary of the method: as §1

[4] = test system: Italian ryegrass (Lolium multiflorum)
Summary of the method: as §1

corn (Zea mays) = test system: corn (Zea mays)
Summary of the method: as §1

[5] = test system: surinam grass (Brachiaria decumbens)
Summary of the method: as §1

[6] = test system: common ragweed (Ambrosia elation)
Summary of the method: as §1

[7] = test system: eastern black (E.B.) nightshade (Solanum ptycanthum); details: Preemergence; for Nightshade, E. B. plant response rating: scale 0 to 100
Summary of the method: as §1

kochia (Kochia scoparia) = details: for Kochia plant response rating: postemergence, 0-100 scale; for Plant response rating, Kochia: Postemergence
Summary of the method: as §1

[8] = test system: Russian thistle (Salsola iberica); details: Preemergence; for Russian Thistle plant response rating: scale 0 to 100
Summary of the method: as §1

[9] = test system: pigweed (Amaranthus retroflexus)
Summary of the method: as §1

[10] = test system: giant foxtail (Setaria faberii)
Summary of the method: as §1

[11] = test system: common (oilseed) sunflower (Helianthus annuus); details: Preemergence; for Sunflower plant response rating: scale 0 to 100
Summary of the method: as §1

[12] = test system: yellow nutsedge (Cyperus esculentus)
Summary of the method: as §1

[13] = 8 g ai/ha, postemergence, 0-100 scale
[14] = 16 g ai/ha, postemergence, 0-100 scale
[15] = Postemergence, 31 g ai/ha, scale 0 to 100
[16] = Postemergence, 62 g ai/ha, scale 0 to 100, 0 no effect, 100 complete control
[17] = Preemergence, 31 g ai/ha, scale 0 to 100 (0 no effect, 100 complete control)
[18] = Preemergence, 62 g ai/ha, 0 to 100 scale, 0 no effect, 100 complete control
[19] = Preemergence, 8 g ai/ha, scale 0 to 100
[20] = Preemergence, 16 g ai/ha, scale 0 to 100
[21] = Postemergence, 16 g ai/ha, scale 0 to 100
[22] = 31 g ai/ha, scale 0 to 100 (0 no effect, 100 complete control)
[23] = 62 g ai/ha, 0 to 100 scale, 0 no effect, 100 complete control

CCc1cc(-c2ccc(C(F)(F)F)cc2)nn1-c1c(O)c(OC)nn(C)c1=O [Compound 66]
Johnsongrass plant response rating [1, 13]: 75
Johnsongrass plant response rating [1, 14]: 100
Plant response rating, Johnsongrass [1, 15]: 100
Plant response rating, Johnsongrass [1, 16]: 100
Plant response rating, Johnsongrass [1, 17]: 98
Plant response rating, Johnsongrass [1, 18]: 100
Johnsongrass plant response rating [1, 19]: 70
Johnsongrass plant response rating [1, 20]: 95
Foxtail, Green plant response rating [2, 13]: 80
Plant response rating, Foxtail, Green [2, 21]: 100
Plant response rating, Foxtail, Green [2, 15]: 100
Plant response rating, Foxtail, Green [2, 16]: 100
Plant response rating, Foxtail, Green [2, 17]: 100
Plant response rating, Foxtail, Green [2, 18]: 100
Foxtail, Green plant response rating [2, 19]: 98
Foxtail, Green plant response rating [2, 20]: 100
Goosegrass plant response rating [3, 13]: 70
Goosegrass plant response rating [3, 14]: 75
Plant response rating, Goosegrass [3, 15]: 85
Plant response rating, Goosegrass [3, 16]: 98
Plant response rating, Goosegrass [3, 17]: 25
Plant response rating, Goosegrass [3, 18]: 70
Goosegrass plant response rating [3, 19]: 0
Goosegrass plant response rating [3, 20]: 0
Ryegrass, Italian plant response rating [4, 13]: 60
Ryegrass, Italian plant response rating [4, 14]: 100
Plant response rating, Ryegrass, Italian [4, 15]: 100
Plant response rating, Ryegrass, Italian [4, 16]: 100
Plant response rating, Ryegrass, Italian [4, 17]: 100
Plant response rating, Ryegrass, Italian [4, 18]: 100
Ryegrass, Italian plant response rating [4, 19]: 100
Ryegrass, Italian plant response rating [4, 20]: 100
Corn plant response rating (corn (Zea mays); [13]): 65
Plant response rating, Corn (corn (Zea mays); [21]): 75
Plant response rating, Corn (corn (Zea mays); [15]): 90
Plant response rating, Corn (corn (Zea mays); [16]): 100
Plant response rating, Corn (corn (Zea mays); [17]): 98
Plant response rating, Corn (corn (Zea mays); [18]): 100
Corn plant response rating (corn (Zea mays); [19]): 0
Corn plant response rating (corn (Zea mays); [20]): 70
Surinam Grass plant response rating [5, 13]: 95
Surinam Grass plant response rating [5, 14]: 98
Plant response rating, Surinam Grass [5, 15]: 100
Plant response rating, Surinam Grass [5, 16]: 100
Plant response rating, Surinam Grass [5, 17]: 98
Plant response rating, Surinam Grass [5, 18]: 98
Surinam Grass plant response rating [5, 19]: 0
Surinam Grass plant response rating [5, 20]: 80
Ragweed plant response rating [6, 13]: 0
Ragweed plant response rating [6, 14]: 0
Plant response rating, Ragweed [6, 15]: 0
Plant response rating, Ragweed [6, 16]: 0
Plant response rating, Ragweed [6, 18]: 0
Ragweed plant response rating [6, 19]: 0
Ragweed plant response rating [6, 20]: 0
Plant response rating, Nightshade, E. B. [7, 22]: 0
Plant response rating, Nightshade, E. B. [7, 23]: 0
Nightshade, E. B. plant response rating ([7]; 8 g ai/ha): 0
Nightshade, E. B. plant response rating ([7]; 16 g ai/ha): 0
Kochia plant response rating (kochia (Kochia scoparia); 8 g ai/ha): 0
Kochia plant response rating (kochia (Kochia scoparia); 16 g ai/ha): 0
Plant response rating, Kochia (kochia (Kochia scoparia); 31 g ai/ha, scale 0 to 100): 0
Plant response rating, Kochia (kochia (Kochia scoparia); 62 g ai/ha, scale 0 to 100, 0 no effect, 100 complete control): 0
Plant response rating, Russian Thistle [8, 22]: 0
Plant response rating, Russian Thistle [8, 23]: 0
Russian Thistle plant response rating ([8]; 8 g ai/ha): 0
Russian Thistle plant response rating ([8]; 16 g ai/ha): 0
Pigweed plant response rating [9, 13]: 0
Pigweed plant response rating [9, 14]: 0
Plant response rating, Pigweed [9, 15]: 0
Plant response rating, Pigweed [9, 16]: 0
Plant response rating, Pigweed [9, 17]: 0
Plant response rating, Pigweed [9, 18]: 95
Pigweed plant response rating [9, 19]: 0
Pigweed plant response rating [9, 20]: 0
Foxtail, Giant plant response rating [10, 13]: 85
Plant response rating, Foxtail, Giant [10, 21]: 98
Plant response rating, Foxtail, Giant [10, 15]: 100
Plant response rating, Foxtail, Giant [10, 16]: 100
Plant response rating, Foxtail, Giant [10, 17]: 95
Plant response rating, Foxtail, Giant [10, 18]: 95
Foxtail, Giant plant response rating [10, 19]: 0
Foxtail, Giant plant response rating [10, 20]: 45
Plant response rating, Sunflower [11, 22]: 0
Plant response rating, Sunflower [11, 23]: 0
Sunflower plant response rating ([11]; 8 g ai/ha): 0
Sunflower plant response rating ([11]; 16 g ai/ha): 0
Nutsedge, Yellow plant response rating [12, 13]: 0
Nutsedge, Yellow plant response rating [12, 14]: 0
Plant response rating, Nutsedge, Yellow [12, 15]: 0
Plant response rating, Nutsedge, Yellow [12, 16]: 0
Plant response rating, Nutsedge, Yellow [12, 17]: 0
Plant response rating, Nutsedge, Yellow [12, 18]: 100
Nutsedge, Yellow plant response rating [12, 19]: 0
Nutsedge, Yellow plant response rating [12, 20]: 0
